{"source": "patent US7098241B2", "about": "“Thiophene hydroxamic acid derivatives” (Hoffmann-La Roche Inc., priority 2002, dated 2006)", "key": {"[1]": {"tested_on": "HCT116 tumor cells (human colon adenocarcinoma) xenograft", "assay": "Antitumor activity in a HCT116 xenograft model", "type": "in vivo, NMRI nude male mice", "conditions": "21 dosing days over 29 days", "procedure": "Determination of Antitumor Activity in a HCT116 Xenograft Model\nThe HCT116 cell line (NCI line) is derived from a human colon adenocarcinoma and kept in an in house working cell bank. Cells were cultured in RPMI1640/2 mM L-glutamin medium supplemented with 10% heat inactivated FCS. For inoculation HCT116 tumor cells are removed (trypsin-EDTA, 50 U/mg) from culture flasks and transferred into culture medium (RPMI 1640, 10% heat inactivated FCS), washed and resuspended in sterile PBS to achieve a final cell concentration of 5×10^6/100 μl. Cell suspension was carefully mixed by regular shaking to avoid cell aggregation and filled into a 1.0 ml graded syringe. Tumor cell inoculation was performed under light anesthesia (Ethrane.) in the upper ventral quarter of right flank, i.e. between axilla of forelegs and midline region of NMRI nude male mice. In this site 5×10^6 HCT116 tumor cells were s.c. discharged in a volume of 100 μl PBS. All procedures were carried out under SPF conditions wearing appropriate clothings. After s.c. inoculation of tumor cells, measurable tumors developed in all animals. Mice were staged and randomized on day 10 according to the primary tumor dimensions. 21 days daily oral dosing was carried out using the compound of example 1 and compound 3 of WO 93/07148, WO 95/31977, U.S. Pat. No. 5,369,108 ('108 patent) as test article. 75 male NMRI nude mice were divided into 5 study groups. Each group consisted of 15 male animals. The individual groups were given the test article, formulated as microsuspensions in 7.5% modified gelatin with 0.22% NaCl solution, once daily by oral route over 29 days according to the following treatment scheme: 3 days treatment, 2 days drug holiday, 5 days treatment, 2 days drug holiday, 5 days treatment, 2 days drug holiday, 5 days treatment, 2 days drug holiday, 3 days treatment. The application volume was 10 ml/kg. The oral doses chosen were 50, 100, and 200 mg/kg of the compound of example 1 and 200 mg/kg of compound 3 of the '108 patent."}, "recombinant HDAC-1": {"target": "T1, recombinant HDAC-1 (Homo sapiens, UniProt Q13547)", "T1 construct": "made in house; host or cells: HEK 293 cells", "T1 sequence (Q13547 whole entry, species assumed)": "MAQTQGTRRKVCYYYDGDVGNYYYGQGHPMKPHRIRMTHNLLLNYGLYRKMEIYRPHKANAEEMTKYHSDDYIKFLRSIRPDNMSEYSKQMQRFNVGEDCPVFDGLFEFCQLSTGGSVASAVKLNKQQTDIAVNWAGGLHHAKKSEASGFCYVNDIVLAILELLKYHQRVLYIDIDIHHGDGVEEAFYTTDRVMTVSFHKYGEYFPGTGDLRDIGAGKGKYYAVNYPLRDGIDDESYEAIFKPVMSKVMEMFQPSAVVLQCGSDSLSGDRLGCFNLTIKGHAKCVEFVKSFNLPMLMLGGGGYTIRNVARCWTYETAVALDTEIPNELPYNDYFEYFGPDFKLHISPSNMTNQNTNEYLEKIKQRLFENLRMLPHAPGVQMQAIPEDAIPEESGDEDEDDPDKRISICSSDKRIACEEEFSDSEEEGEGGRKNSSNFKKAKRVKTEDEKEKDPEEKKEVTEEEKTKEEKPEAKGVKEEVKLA", "assay": "HDAC biochemical quench assay", "conditions": "recombinant HDAC-1 purified from HEK 293 cells, 1 uM peptide substrate, 90 min at room temperature", "source_text": "The function of histone deacetylase (HDAC) is the deacetylation of lysines in e.g. histone H4. A peptide of 17 amino acids derived from histone H4 was labeled with TAMRA at the C-terminus and QSY-7 at the N-terminus and was used as a substrate (TAMRA-first17 aa of histone H4-QSY7). Following deacetylation by HDAC, the enzyme Lys C is able to cleave the peptide after lysine. […] Inhibition of HDAC by compounds results in low signals because Lys C could not cleave the substrate and the quench effect persists.\nFor dose response curves, 10 concentrations were diluted 1:3 starting at 30 uM. 10 ul compound dilution were put into each well of a 384 well plate. 10 ul HDAC were added (recombinant HDAC-1 purified from HEK 293 cells; enzyme activity has to be assessed for each preparation). 10 ul peptide substrate was added (1 uM final concentration, derived from 1 mM stock solution diluted 1:1000 in test buffer). After 90 min incubation at room temperature, the reaction was stopped by addition of 20 ul test buffer including 3 ug/ml Lys C and 0.075% SDS. After overnight incubation the fluorescence signal of TAMRA was measured (Victor 2 from Wallac, absorption 544 nm, emission 590 nm). The O.D. of DMSO-treated control wells is 100%, the % inhibition of compound treated wells is calculated in relation to 100%. Based on 10 concentrations a IC50 curve is generated by using XL.fit3.\nTest buffer used: a mixture of 10 mM Hepes pH8, 10 mM NaCl, 10% Glycerol, 0.005% Triton X100, 0.1 mM EDTA, 0.1 mM TCEP. As plates were used 384 well plates (black, Greiner, 781077)."}, "[2]": {"tested_on": "PC-3 prostate carcinoma cells xenograft", "assay": "Antitumor activity in a PC-3 xenograft model", "type": "in vivo, NMRI nude mice", "conditions": "15 days of treatment over 19 days, vs vehicle group", "procedure": "Determination of Antitumor Activity in a PC-3 Xenograft Model\nPC-3 prostate carcinoma cells were originally obtained from the NCI collection and were deposited after expansion in the Roche cell bank Penzberg. Tumor cell line was routinely cultured in RPMI 1640 Medium containing 10% FBS and 2 mM L-glutamine at 37° C. in a water-saturated atmosphere at 5% CO2. Culture passage was performed with trypsin/EDTA 1× (Roche Diagnostics) splitting twice a week. Cell passage 3 was used in the present study.\nAt the day of cell injection, cells were harvested from culture flasks (Greiner T 75), transferred into 50 ml culture medium, washed once and resuspended in PBS. After an additional washing with PBS, the final cell titer was measured with a Neubauer-Chamber. The tumor cell suspension (PBS) was vortexed carefully (to reduce cell aggregation) and kept on ice. The cell suspension was filled into a 1.0 ml syringe. To generate primary tumors, 2×10^6 PC-3 tumor cells in a volume of 100 μl PBS were injected subcutaneously into the right flank of each mouse (NMRI nude mice). After s.c. inoculation of tumor cells, measurable tumors developed in all animals. Mice were staged and randomized on day 10 according to the primary tumor dimensions. 15 days daily oral dosing was carried out using the compound of example 1 and compound 3 of WO 93/07148, WO 95/31977, U.S. Pat. No. 5,369,108 as test article. 90 male NMRI nude mice were divided into 6 study groups. Each group consisted of 15 male animals. The individual groups were given the test article, formulated as microsuspensions in 7.5% modified gelatin with 0.22% NaCl solution, once daily by oral route over 19 days (3 cycles of 5 days treatment and a 2-day drug free period each). The application volume was 10 ml/kg. The oral doses chosen were 25, 50, 100, and 200 mg/kg of example 1 and 200 mg/kg of compound 3 of patent '108. The study was terminated on day 28 after tumor cell injection when the vehicle group reached the termination criteria."}}, "data": [{"smiles": "C[C@@H](NC(=O)c1ccc(C(=O)NO)s1)c1ccccc1", "note": "[Example 1, (R)-thiophene-2,5-dicarboxylic acid 2-hydroxyamide 5-[(1-phenyl-ethyl)-amide]]", "values": [{"measurement": "tumor weight inhibition", "setting": "[1]; 50 mg/kg oral once daily", "result": 40, "unit": "%"}, {"measurement": "tumor weight inhibition", "setting": "[1]; 100 mg/kg oral once daily", "result": 49, "unit": "%"}, {"measurement": "tumor weight inhibition", "setting": "[1]; 200 mg/kg oral once daily", "result": 87, "unit": "%"}, {"measurement": "IC50", "setting": "recombinant HDAC-1", "result": 3.4, "unit": "nM"}, {"measurement": "tumor weight inhibition", "setting": "[2]; 25 mg/kg oral once daily", "result": 15, "unit": "%"}, {"measurement": "tumor weight inhibition", "setting": "[2]; 50 mg/kg oral once daily", "result": 36, "unit": "%"}, {"measurement": "tumor weight inhibition", "setting": "[2]; 100 mg/kg oral once daily", "result": 51, "unit": "%"}, {"measurement": "tumor weight inhibition", "setting": "[2]; 200 mg/kg oral once daily", "result": 81, "unit": "%"}]}]}
